Data: publication PMC4805124 (Biochemistry, 2015)
“And” between values parts separate entries of the source, which are not always exact repeats. Equal entries are not always repeated. Where two headings read alike, the source gives them in different places.

How the values were obtained:
InhA^WT [1] = target: T1, InhA^WT (Mycobacterium tuberculosis, UniProt P9WGR1); assay type: biochemical
InhA^WT [2] = target: T1, InhA^WT; assay type: binding
InhA = settings: cited from earlier work

T1 sequence (P9WGR1 whole entry, looked up): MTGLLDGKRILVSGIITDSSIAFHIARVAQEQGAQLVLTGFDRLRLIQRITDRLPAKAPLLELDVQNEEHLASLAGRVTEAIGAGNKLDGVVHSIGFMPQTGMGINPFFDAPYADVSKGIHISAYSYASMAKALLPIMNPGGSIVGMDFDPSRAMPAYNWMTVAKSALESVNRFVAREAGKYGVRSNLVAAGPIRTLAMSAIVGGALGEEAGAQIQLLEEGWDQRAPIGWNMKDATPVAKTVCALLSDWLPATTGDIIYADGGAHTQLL

Row | SMILES | Ki^app/Ki*^app (InhA^WT [1]) | k5 (InhA^WT [1]) | k6 (InhA^WT [1]) | tR (1/k6) (InhA^WT [1]) | ΔΔG (InhA^WT [1]) | Ki (InhA^WT [1]; read-out: Ki*^app) | Ki (InhA^WT [1]; read-out: Ki^app) | tR (^32P- NAD) (InhA^WT [2]) | residence time (InhA) | Ki (InhA; slow-onset, tight binding inhibitor)
1 | CCCCCCc1ccc(Oc2ccccc2C)c(O)c1 [PT70, 2-(o-tolyoxy)-5-hexylphenol] | 10.8 | 0.40 ± 0.01 min⁻¹ | 0.025 ± 0.002 min⁻¹ | 40 ± 2 min | 1.41 and 1.41 kcal mol^−1 | 24 nM and 23.7 nM | 256 ± 38 nM | 37 ± 2 min | 40 min | 0.6 nM
2 | Cc1ccccc1Oc1ccc(Cn2cc(-c3ccccc3)nn2)cc1O [PT163, 5-((4-phenyl-1H-1,2,3-triazol-1-yl)methyl)-2-(o-tolyloxy)phenol] | – | 0.44 ± 0.06 min⁻¹ | 0.011 ± 0.001 min⁻¹ | 94 ± 3 min | 2.26 kcal/mol | – | – | 114 min and 114 ± 18 min | – | –
